Broadly, the viability is a read-out of living cells in per cent, often relative to untreated cells.

From article PMC10766964, “Copper-catalyzed synthesis of pyrazolo[1,5-a]pyrimidine based triazole-linked glycohybrids: mechanistic insights and bio-applications” (Scientific Reports, 2024) come the findings set out here.

The test system of this experiment is MDA-MB-231 (human breast cancer) cell line. The experiment in a line: MTT cell viability assay in MDA-MB-231 cells. The following applies: 72 h; for viability at 20 µM: positive control at 20 µM. In kind it is cell-based. Here is the method: Thus, we screened the synthesized library of pyrazolo[1,5-a]pyrimidin-7-ols 4a–4i. Anticancer activity (in terms of growth inhibition/decreased cell viability with respect to control) of all synthesized compounds (n = 9) was investigated by MTT assay in MDA-MB-231 (human breast cancer) cell line at different concentrations for 72 h. […] Thus, it was aimed to investigate the anticancer activity of a synthesized library of triazole-linked glycohybrids of pyrazolo[1,5-a]pyrimidines. […] The MTT assay was used to investigate the anticancer activity of twenty-seven synthesized compounds on the growth inhibition and decrement in cell viability of MDA-MB-231 (human breast cancer). Different concentrations were tested for 72 h, and the results were compared to a control. MDA-MB-231, a human breast cancer cell line, was cultured under standard conditions. Specifically, they were grown in Dulbecco’s Modified Eagle’s Medium (DMEM) supplemented with 10% heat-inactivated Fetal Bovine Serum (FBS) and 1% penicillin–streptomycin. The cells were maintained as a monolayer in a 100 mm culture plate and were used for experiments before reaching their 8th passage. Subculturing was performed every third-day using trypsin EDTA treatment. All incubation and maintenance procedures were carried out in a humidified CO2 incubator at 37 °C. To evaluate cell viability, the MTT assay was conducted following standard procedures. After 72 h of cell incubation with or without each compound, cell viability was assessed using MTT (3-(4,5-dimethylthiazol-2-yl)-2,5-diphenyltetrazolium bromide), which is a colorimetric method for determining the number of viable cells in various assays including proliferation, cytotoxicity, or chemosensitivity. The MTT reagent was added to the cells after removal of the medium and incubated for 3 h at 37 °C in the CO2 incubator. The formazan product, which is […] in the tissue culture medium, was dissolved in DMSO, and the absorbance of the formazan product was directly measured at 595 nm using a multimode plate reader without additional processing. The absorbance values are directly proportional to the number of viable cells in culture. The percentage of viable cells in each group was determined relative to the untreated control cells.
(Formazan colour is commonly taken as a measure of viable cells.)

The mark [1] stands for this setting: Table 2, MDA-MB-231, MTT, read-out: Cell viability (%) ± SD.

Read-outs that look alike come from different tables or passages of the source.

With `CC(=O)OC[C@H]1O[C@@H](n2cc(COc3cc(-c4ccc5ccccc5c4)nc4ccnn34)nn2)[C@H](OC(C)=O)[C@@H](OC(C)=O)[C@H]1OC(C)=O` [Compound 10h, (2R,3S,4S,5R,6R)-2-(acetoxymethyl)-6-(4-(((5-(naphthalen-2-yl)pyrazolo[1,5-a]pyrimidin-7-yl)oxy)methyl)-1H-1,2,3-triazol-1-yl)tetrahydro-2H-pyran-3,4,5-triyl triacetate], under setting [1], the viability at 10 µM turned out to be 75 ± 8.31%, the viability at 25 µM turned out to be 89.6 ± 9.91% and the viability at 50 µM is 57.7 ± 10.8%.
The matching figures for `CC(=O)OC[C@H]1O[C@@H](n2cc(COc3cc(-c4ccc5c(c4)OCO5)nc4ccnn34)nn2)[C@H](OC(C)=O)[C@@H](OC(C)=O)[C@H]1OC(C)=O` [Compound 10i, (2R,3S,4S,5R,6R)-2-(acetoxymethyl)-6-(4-(((5-(benzo[d][1,3]dioxol-5-yl)pyrazolo[1,5-a]pyrimidin-7-yl)oxy)methyl)-1H-1,2,3-triazol-1-yl)tetrahydro-2H-pyran-3,4,5-triyl triacetate]: 100 ± 9.67%, 99.25 ± 0.34% and 98.5 ± 1.88%.
In the case of `CC(=O)OC[C@H]1O[C@H](n2cc(COc3cc(-c4ccc(C)cc4)nc4ccnn34)nn2)[C@@H](OC(C)=O)[C@@H](OC(C)=O)[C@@H]1OC(C)=O` [Compound 11a, (2R,3R,4S,5S,6S)-2-(acetoxymethyl)-6-(4-(((5-(p-tolyl)pyrazolo[1,5-a]pyrimidin-7-yl)oxy)methyl)-1H-1,2,3-triazol-1-yl)tetrahydro-2H-pyran-3,4,5-triyl triacetate], under setting [1], the viability at 10 µM is 98 ± 7.7%, the viability at 25 µM is 91.8 ± 7.09% and the viability at 50 µM was found to be 96.7 ± 9.12%.
Take `COc1ccc(-c2cc(OCc3cn([C@H]4O[C@H](COC(C)=O)[C@@H](OC(C)=O)[C@H](OC(C)=O)[C@@H]4OC(C)=O)nn3)n3nccc3n2)cc1` [Compound 11b, (2R,3R,4S,5S,6S)-2-(acetoxymethyl)-6-(4-(((5-(4-methoxyphenyl)pyrazolo[1,5-a]pyrimidin-7-yl)oxy)methyl)-1H-1,2,3-triazol-1-yl)tetrahydro-2H-pyran-3,4,5-triyl triacetate]: under setting [1], the viability at 10 µM turned out to be 99.5 ± 10.2%, the viability at 25 µM came out at 95.2 ± 10.6% and the viability at 50 µM came out at 70.4 ± 10.5%.
With `CC(=O)OC[C@H]1O[C@H](n2cc(COc3cc(-c4ccc(Br)cc4)nc4ccnn34)nn2)[C@@H](OC(C)=O)[C@@H](OC(C)=O)[C@@H]1OC(C)=O` [Compound 11c, (2R,3R,4S,5S,6S)-2-(acetoxymethyl)-6-(4-(((5-(4-bromophenyl)pyrazolo[1,5-a]pyrimidin-7-yl)oxy)methyl)-1H-1,2,3-triazol-1-yl)tetrahydro-2H-pyran-3,4,5-triyl triacetate], under setting [1], the viability at 10 µM was determined as 81.3 ± 7.65%, the viability at 25 µM amounted to 76.5 ± 6.58% and the viability at 50 µM stood at 72.5 ± 8.45%.
`CC(=O)OC[C@H]1O[C@H](n2cc(COc3cc(-c4ccc(Cl)cc4)nc4ccnn34)nn2)[C@@H](OC(C)=O)[C@@H](OC(C)=O)[C@@H]1OC(C)=O` [Compound 11d, (2R,3R,4S,5S,6S)-2-(acetoxymethyl)-6-(4-(((5-(4-chlorophenyl)pyrazolo[1,5-a]pyrimidin-7-yl)oxy)methyl)-1H-1,2,3-triazol-1-yl)tetrahydro-2H-pyran-3,4,5-triyl triacetate]: under setting [1], the viability at 10 µM was determined as 95.8 ± 5.85%, the viability at 25 µM is 92.1 ± 6% and the viability at 50 µM worked out at 89 ± 1.1%.
In the case of `CC(=O)OC[C@H]1O[C@H](n2cc(COc3cc(-c4ccc(F)cc4)nc4ccnn34)nn2)[C@@H](OC(C)=O)[C@@H](OC(C)=O)[C@@H]1OC(C)=O` [Compound 11e, (2R,3R,4S,5S,6S)-2-(acetoxymethyl)-6-(4-(((5-(4-fluorophenyl)pyrazolo[1,5-a]pyrimidin-7-yl)oxy)methyl)-1H-1,2,3-triazol-1-yl)tetrahydro-2H-pyran-3,4,5-triyl triacetate], under setting [1], the viability at 10 µM is 98.4 ± 3.62%, the viability at 25 µM was 90.1 ± 6.77% and the viability at 50 µM was 88.6 ± 6.27%.
Regarding `CC(=O)OC[C@H]1O[C@H](n2cc(COc3cc(-c4ccc(C(F)(F)F)cc4)nc4ccnn34)nn2)[C@@H](OC(C)=O)[C@@H](OC(C)=O)[C@@H]1OC(C)=O` [Compound 11f, (2R,3R,4S,5S,6S)-2-(acetoxymethyl)-6-(4-(((5-(4-(trifluoromethyl)phenyl)pyrazolo[1,5-a]pyrimidin-7-yl)oxy)methyl)-1H-1,2,3-triazol-1-yl)tetrahydro-2H-pyran-3,4,5-triyl triacetate], under setting [1], the viability at 10 µM was 79.6 ± 4.7%, the viability at 25 µM is 74.5 ± 4.44% and the viability at 50 µM worked out at 86.5 ± 7.27%.
On to `CC(=O)OC[C@H]1O[C@H](n2cc(COc3cc(-c4ccc5ccccc5c4)nc4ccnn34)nn2)[C@@H](OC(C)=O)[C@@H](OC(C)=O)[C@@H]1OC(C)=O` [Compound 11h, (2R,3R,4S,5S,6S)-2-(acetoxymethyl)-6-(4-(((5-(naphthalen-2-yl)pyrazolo[1,5-a]pyrimidin-7-yl)oxy)methyl)-1H-1,2,3-triazol-1-yl)tetrahydro-2H-pyran-3,4,5-triyl triacetate], for which, under setting [1], the viability at 10 µM turned out to be 101 ± 9.28%, the viability at 25 µM came out at 89.8 ± 2.22% and the viability at 50 µM was found to be 82.5 ± 5.45%.
For `CC(=O)OC[C@H]1O[C@H](n2cc(COc3cc(-c4ccc5c(c4)OCO5)nc4ccnn34)nn2)[C@@H](OC(C)=O)[C@@H](OC(C)=O)[C@@H]1OC(C)=O` [Compound 11i, (2R,3R,4S,5S,6S)-2-(acetoxymethyl)-6-(4-(((5-(benzo[d][1,3]dioxol-5-yl)pyrazolo[1,5-a]pyrimidin-7-yl)oxy)methyl)-1H-1,2,3-triazol-1-yl)tetrahydro-2H-pyran-3,4,5-triyl triacetate] the same measures were 97.5 ± 4.91%, 95.3 ± 3.6% and 93.9 ± 9.08%.
`CC1=CC(=O)c2ccccc2C1=O` [Menadione, menadione, reference compound]: the viability at 20 µM is, setting by setting: (Table 1, MDA-MB-231, MTT, read-out: Cell Viability (%) ± SD) 21.8 ± 4.7%; under setting [1], 20.8 ± 6.7%.
